Data: patent US20170027955A1, “EXPRESSION LEVELS OF BCL-XL, BCL2, BCL-W, AND BAD AND CANCER THERAPIES” (Constellation Pharmaceuticals, Inc., priority 2014, published 2017)

Key:
[1] = tested on: AMO-1 cell line; experiment: Sub-G1 (apoptosis) and G0/G1 (G1 arrest) DNA content after 4 days of treatment, flow cytometry; format: cell-based
Description: (§1) Approximately 60 hematological cancer cell lines were profiled, with representative numbers of leukemia, multiple myeloma/plasmacytoma, and lymphoma cell lines. Cells were grown in the presence of BET inhibitors, (9), (10), and (11), for 4 days. Viability was measured using a fluorescent dye (resazurin, Sigma) that measures mitochondrial fitness as a proxy for cell number. Raw fluorescence values at each compound concentration were normalized to the values in the absence of compound, and percentage growth was plotted to determine the concentration of compound at which 50% growth inhibition was achieved (GI50). Cells were then fixed and stained with propidium iodide for flow cytometric determination of cell cycle distribution. The percentage of cells with less than G0/G1 DNA content (% subG1) was used as a measurement of apoptosis. The percentage of viable cells (non-subG1 cells) with G0/G1 DNA content was measured, and the % GI for control cells was subtracted from the % GI at each compound concentration to calculate a percentage increase in G1.
The bottom panels show the dose dependent increase in the percentage of cells with sub-G1 DNA content (apoptosis) and G0/G1 DNA content (G1 arrest) in response to 4 days of treatment with the same BET inhibitors in the AMO-1 cell line.

[2] = tested on: NOMO-1 cells; experiment: BETi-resistant NOMO-1 AML cells: proliferation and viability; format: cell-based
Description: A BETi-resistant acute myeloid leukemia (AML) cell line was prepared. NOMO-1 cells were treated with increasing concentrations of (9), and when the population consisted of less than 80% live cells, viable cells were enriched by spinning over Ficoll-Paque (GE Healthcare). At the end of this procedure cells were able to proliferate in the presence of 1 μM (9), and were maintained at this dose, which is about 30-fold higher than their original GI50 (FIG. 6A). The ideal growth conditions for the BETi-tolerant cells appeared to be in the presence of ˜0.1 μM (9). While parental cells induced a robust apoptotic response in response to BETi, resistant cells grown in the presence of BETi only underwent apoptosis when the inhibitor was completely removed (FIG. 6B).
(See e.g., Fernald and Kurokawa. Evading Apoptosis in Cancer. Trends Cell Biol. 2013 December; 23(12): 620-633.) Expression of the pro-apoptotic gene BCL2L11 (encoding BIM) was increased in parental cells upon treatment with BETi (FIG. 6C). The relative expression ratio of BCL2L11/BCL2 correlated with the apoptotic response in parental cells (FIG. 6D). In the resistant cells cultured in the presence of (9), high levels of BIM were maintained (FIG. 6C). […]

[3] = tested on: A375 cells; experiment: Growth inhibition (GI50) of A375 cells by BET inhibitor; format: cell-based, human
Description: as §1
The human melanoma cell line A375 is phenotypically sensitive to BET inhibition, with a GI50 of 0.10 μM for (9) (FIG. 3, top panel). To understand possible mechanisms of acquired and de novo resistance to BET inhibition, A375 cells were grown in the presence of 1 μM of (9) for approximately 90 days. […]

[4] = tested on: panel of 245 cell lines of varying lineages; experiment: Viability of a panel of 245 cell lines treated with BET inhibitor for 3 or 4 d (Cell Titer Glo or resazurin); format: cell-based
Description: In order to identify predictive biomarkers for phenotypic response to BET inhibition, viability data was obtained for a panel of cell lines for which gene expression data are available. A panel of 245 cell lines of varying lineages (FIG. 7) was treated with the BET bromodomain inhibitor (9) for 3 or 4 d. Viability was assessed using either Cell Titer Glo (Promega) or resazurin (Sigma). GI50 values were determined as the concentration of inhibitor that caused viability to be reduced by 50% relative to the vehicle-treated control cells. Cell lines were defined as “sensitive” if GI50 values were at or below 0.25 μM, and as “insensitive” if GI50 values were above 0.25 μM. […] Where multiple probe sets were available for a given gene, the probe set that hybridized to all transcript variants and gave the largest standard deviation across the panel of cell lines was chosen. Based on the correlations shown in FIGS. 8 and 9, cell lines expressing high levels of BCL2 were defined as those expressing an RMA value of BCL2 within the top 33% of all 245 cell lines. Similarly, cell lines expressing low levels of BCL2L1, BCL2L2, and BAD were defined as those expressing RMA values of these genes within the bottom 33% of all cell lines. […] Further enrichment was obtained by combining criteria, with the highest enrichment obtained by selecting for cell lines with high expression of BCL2 and low expression of BCL2L1 (65%±7% response rate) or high expression of BCL2 and low expression of BAD (75%±6% response rate) (FIG. 11). Similar enrichment of responsive cell lines is obtained when cell lines of hematologic origin are considered separately from those of solid tumor origin (FIG. 12-15).

[5] = tested on: BET inhibitor resistant A375 cells; experiment: Co-treatment of BET inhibitor resistant A375 cells with (9) and ABT-737 for 11 days; format: cell-based, human; conditions: resistant A375 cells co-treated with 1 μM (9) and increasing concentrations of ABT-737, 11 days
Description: BCL-xL is targeted by several commercially available BCL-2 family small molecule inhibitors (Billard, C. et al. BH3 mimetics: status of the field and new developments. Mol Cancer Ther. 2013 September; 12(9):1691-700). To test whether pharmacological inhibition of BCL-xL would restore sensitivity to BET inhibition in BET inhibitor resistant A375 cells, parental and resistant cells were co-treated with 1 μM (9) or DMSO and increasing concentrations of the pan-BCL2 inhibitor ABT-737 for 11 days (Ottersdorf, T., et al. An inhibitor of Bcl-2 family proteins induces regression of solid tumours. Nature. 2005 Jun. 2; 435(7042):677-81).

## Cc1noc2c1-c1ccccc1C(c1ccc(Cl)cc1)=N[C@H]2CC(N)=O [(10)]
[1]
  maximal response (% sub-G1 and G0/G1 DNA content): equivalent

## Cc1sc2c(c1C)C(c1ccc(Cl)cc1)=N[C@@H](CC(N)=O)c1nnc(C)n1-2 [(9)]
[1]
  maximal response (% sub-G1 and G0/G1 DNA content): equivalent
[2]; BETi-resistant NOMO-1 cells proliferating in 1 μM (9)
  maintenance concentration of resistant cells (1 μM) relative to original GI50: about 30 fold
[3]; A375 clones grown in 1 μM (9) for approximately 90 days, after 11 days
  shift in GI50 of resistant clones relative to parental cells: relatively modest shift in GI50
[3]; A-375, parental human melanoma cell line A375
  GI50: 100 nM
[4]; all 245 cell lines
  overall response rate (fraction of cell lines with GI50 equal to or less than 0.25 μM): 28%
[4]; cell lines with high expression of BCL2 and low expression of BAD
  response rate (fraction of cell lines with GI50 equal to or less than 0.25 μM): 75%±6%
[4]; cell lines with high expression of BCL2 and low expression of BCL2L1
  response rate (fraction of cell lines with GI50 equal to or less than 0.25 μM): 65%±7%

## CN(C)CC[C@H](CSc1ccccc1)Nc1ccc(S(=O)(=O)NC(=O)c2ccc(N3CCN(Cc4ccccc4-c4ccc(Cl)cc4)CC3)cc2)cc1[N+](=O)[O-] [ABT-737]
[5]
  restoration of sensitivity to (9): restores sensitivity to (9) in a dose-dependent manner

## CC1(C)CCC(CN2CCN(c3ccc(C(=O)NS(=O)(=O)c4ccc(NCC5CCOCC5)c([N+](=O)[O-])c4)c(Oc4cnc5[nH]ccc5c4)c3)CC2)=C(c2ccc(Cl)cc2)C1 [ABT-199, reference compound]
[2]; resistant NOMO-1 cells, FIG. 6f
  phenotypic sensitivity of resistant cells to BCL2 inhibitor: increased phenotypic sensitivity

## Cc1noc2c1-c1ccc(-c3cnn(C)c3)cc1C(c1ccc(Cl)cc1)=N[C@H]2CC(N)=O [(11)]
[1]
  maximal response (% sub-G1 and G0/G1 DNA content): equivalent
